Assay results: US20090156517A1, “STABLE PHARMACEUTICAL COMPOSITIONS OF AMINOGLYCOSIDE ANTIBIOTICS, ION-CHELATING AGENTS, AND BUFFERS” (priority 2006, published 2009)
Each block holds one molecule with its values, some of them ahead of it.

Assay: Amounts of antibiotic components in the solution over time (reverse-phase LC/UV for β-lactams and β-lactamase inhibitors, HPLC/evaporation-light-scattering for aminoglycosides)
Assay type: physicochemical
Procedure: The amounts of β-lactam antibiotics and β-lactamase inhibitor were determined using C18 reverse-phase LC and UV-VIS detector (Tianjin […] Co., Ltd., analysis method No. HM-K-03). The content of aminoglycoside antibiotics was measured using reverse-phase HPLC and evaporation-light-scattering detector (Tianjin […] Co., Ltd., analysis method No. HM-K-08). […] The relative amount of each antibiotic component in the composition at each time point was expressed as peak area ratio with respect to the corresponding peak area of an external standard.

[1] = Example 6 solution (cefoperazone sodium, sulbactam sodium, etimicin sulfate, disodium EDTA, sodium citrate pH 6.5), room temperature, 0 h
[2] = Example 6 solution (cefoperazone sodium, sulbactam sodium, etimicin sulfate, disodium EDTA, sodium citrate pH 6.5), room temperature, 1 h
[3] = Example 6 solution (cefoperazone sodium, sulbactam sodium, etimicin sulfate, disodium EDTA, sodium citrate pH 6.5), room temperature, 2 h
[4] = Example 6 solution (cefoperazone sodium, sulbactam sodium, etimicin sulfate, disodium EDTA, sodium citrate pH 6.5), room temperature, 4 h
[5] = Example 6 solution (cefoperazone sodium, sulbactam sodium, etimicin sulfate, disodium EDTA, sodium citrate pH 6.5), room temperature, 6 h
[6] = Example 6 solution (cefoperazone sodium, sulbactam sodium, etimicin sulfate, disodium EDTA, sodium citrate pH 6.5), room temperature, 8 h
[7] = Example 14: cefoperazone sodium/tazobactam sodium solution pH 6.75, etimicin sulfate added, 0 h
[8] = Example 14: cefoperazone sodium/tazobactam sodium solution pH 6.75, etimicin sulfate added, 1 h
[9] = Example 14: cefoperazone sodium/tazobactam sodium solution pH 6.75, etimicin sulfate added, 2 h
[10] = Example 14: cefoperazone sodium/tazobactam sodium solution pH 6.75, etimicin sulfate added, 4 h
[11] = Example 14: cefoperazone sodium/tazobactam sodium solution pH 6.75, etimicin sulfate added, 6 h
[12] = Example 14: cefoperazone sodium/tazobactam sodium solution pH 6.75, etimicin sulfate added, 8 h
[13] = Example 7 solution (ceftriaxone sodium, sulbactam sodium, etimicin sulfate, disodium EDTA, sodium citrate pH 6.5), room temperature, 0 h
[14] = Example 7 solution (ceftriaxone sodium, sulbactam sodium, etimicin sulfate, disodium EDTA, sodium citrate pH 6.5), room temperature, 1 h
[15] = Example 7 solution (ceftriaxone sodium, sulbactam sodium, etimicin sulfate, disodium EDTA, sodium citrate pH 6.5), room temperature, 2 h
[16] = Example 7 solution (ceftriaxone sodium, sulbactam sodium, etimicin sulfate, disodium EDTA, sodium citrate pH 6.5), room temperature, 4 h
[17] = Example 7 solution (ceftriaxone sodium, sulbactam sodium, etimicin sulfate, disodium EDTA, sodium citrate pH 6.5), room temperature, 6 h
[18] = Example 7 solution (ceftriaxone sodium, sulbactam sodium, etimicin sulfate, disodium EDTA, sodium citrate pH 6.5), room temperature, 8 h

Amount of component, percentage of amount at initial time (Example 9: amikacin sulfate/disodium EDTA/citrate pH 6.5 solution with fructose stored 7 days at minus 20° C., thawed, cefodizime sodium added, 0 h): 96.88%
Amount of component, percentage of amount at initial time (Example 9: amikacin sulfate/disodium EDTA/citrate pH 6.5 solution with fructose stored 7 days at minus 20° C., thawed, cefodizime sodium added, 1 h): 97.78%
Amount of component, percentage of amount at initial time (Example 9: amikacin sulfate/disodium EDTA/citrate pH 6.5 solution with fructose stored 7 days at minus 20° C., thawed, cefodizime sodium added, 2 h): 96.14%
Amount of component, percentage of amount at initial time (Example 9: amikacin sulfate/disodium EDTA/citrate pH 6.5 solution with fructose stored 7 days at minus 20° C., thawed, cefodizime sodium added, 4 h): 96.88%
Amount of component, percentage of amount at initial time (Example 9: amikacin sulfate/disodium EDTA/citrate pH 6.5 solution with fructose stored 7 days at minus 20° C., thawed, cefodizime sodium added, 6 h): 98.34%
Amount of component, percentage of amount at initial time (Example 9: amikacin sulfate/disodium EDTA/citrate pH 6.5 solution with fructose stored 7 days at minus 20° C., thawed, cefodizime sodium added, 8 h): 98.11%
Amount of component, percentage of amount at initial time (Example 12: thawed solution from Example 10, pH 6.0, amikacin sulfate added, no EDTA, 0 h): 86.05%
Amount of component, percentage of amount at initial time (Example 12: thawed solution from Example 10, pH 6.0, amikacin sulfate added, no EDTA, 1 h): 83.57%
Amount of component, percentage of amount at initial time (Example 12: thawed solution from Example 10, pH 6.0, amikacin sulfate added, no EDTA, 2 h): 81.55%
Amount of component, percentage of amount at initial time (Example 12: thawed solution from Example 10, pH 6.0, amikacin sulfate added, no EDTA, 4 h): 80.55%
Amount of component, percentage of amount at initial time (Example 12: thawed solution from Example 10, pH 6.0, amikacin sulfate added, no EDTA, 6 h): 85.75%
Amount of component, percentage of amount at initial time (Example 12: thawed solution from Example 10, pH 6.0, amikacin sulfate added, no EDTA, 8 h): 83.83%
SMILES: NCC[C@H](O)C(=O)N[C@@H]1C[C@H](N)[C@@H](O[C@H]2O[C@H](CN)[C@@H](O)[C@H](O)[C@H]2O)[C@H](O)[C@H]1O[C@H]1O[C@H](CO)[C@@H](O)[C@H](N)[C@H]1O [Amikacin, amikacin]

Amount of component, percentage of amount at initial time (Example 4 solution (cefoperazone sodium, sulbactam sodium, gentamicin, sodium citrate pH 6.75, no EDTA), room temperature, 0 h): 101.4%
Amount of component, percentage of amount at initial time (Example 4 solution (cefoperazone sodium, sulbactam sodium, gentamicin, sodium citrate pH 6.75, no EDTA), room temperature, 1 h): 98.66%
Amount of component, percentage of amount at initial time (Example 4 solution (cefoperazone sodium, sulbactam sodium, gentamicin, sodium citrate pH 6.75, no EDTA), room temperature, 2 h): 98.79%
Amount of component, percentage of amount at initial time (Example 4 solution (cefoperazone sodium, sulbactam sodium, gentamicin, sodium citrate pH 6.75, no EDTA), room temperature, 4 h): 101.5%
Amount of component, percentage of amount at initial time (Example 4 solution (cefoperazone sodium, sulbactam sodium, gentamicin, sodium citrate pH 6.75, no EDTA), room temperature, 6 h): 107.4%
Amount of component, percentage of amount at initial time (Example 5 solution (cefoperazone sodium, sulbactam sodium, gentamicin, disodium EDTA, sodium citrate pH 6.75), room temperature, 0 h): 101.4%
Amount of component, percentage of amount at initial time (Example 5 solution (cefoperazone sodium, sulbactam sodium, gentamicin, disodium EDTA, sodium citrate pH 6.75), room temperature, 1 h): 98.66%
Amount of component, percentage of amount at initial time (Example 5 solution (cefoperazone sodium, sulbactam sodium, gentamicin, disodium EDTA, sodium citrate pH 6.75), room temperature, 2 h): 98.79%
Amount of component, percentage of amount at initial time (Example 5 solution (cefoperazone sodium, sulbactam sodium, gentamicin, disodium EDTA, sodium citrate pH 6.75), room temperature, 4 h): 101.5%
Amount of component, percentage of amount at initial time (Example 5 solution (cefoperazone sodium, sulbactam sodium, gentamicin, disodium EDTA, sodium citrate pH 6.75), room temperature, 6 h): 107.4%
Amount of component, percentage of amount at initial time [1]: 110.4%
Amount of component, percentage of amount at initial time [2]: 99.48%
Amount of component, percentage of amount at initial time [3]: 101.3%
Amount of component, percentage of amount at initial time [4]: 98.66%
Amount of component, percentage of amount at initial time [5]: 98.02%
Amount of component, percentage of amount at initial time [6]: 99.30%
Amount of component, percentage of amount at initial time (Example 14: cefoperazone sodium/tazobactam sodium solution pH 6.75, disodium EDTA and amikacin sulfate added, room temperature, 0 h): 100.2%
Amount of component, percentage of amount at initial time (Example 14: cefoperazone sodium/tazobactam sodium solution pH 6.75, disodium EDTA and amikacin sulfate added, room temperature, 1 h): 99.0%
Amount of component, percentage of amount at initial time (Example 14: cefoperazone sodium/tazobactam sodium solution pH 6.75, disodium EDTA and amikacin sulfate added, room temperature, 2 h): 99.0%
Amount of component, percentage of amount at initial time (Example 14: cefoperazone sodium/tazobactam sodium solution pH 6.75, disodium EDTA and amikacin sulfate added, room temperature, 4 h): 96.2%
Amount of component, percentage of amount at initial time (Example 14: cefoperazone sodium/tazobactam sodium solution pH 6.75, disodium EDTA and amikacin sulfate added, room temperature, 6 h): 94.5%
Amount of component, percentage of amount at initial time (Example 14: cefoperazone sodium/tazobactam sodium solution pH 6.75, disodium EDTA and amikacin sulfate added, room temperature, 8 h): 95.3%
Amount of component, percentage of amount at initial time [7]: 100.2%
Amount of component, percentage of amount at initial time [8]: 99.0%
Amount of component, percentage of amount at initial time [9]: 99.0%
Amount of component, percentage of amount at initial time [10]: 96.2%
Amount of component, percentage of amount at initial time [11]: 94.5%
Amount of component, percentage of amount at initial time [12]: 95.3%
SMILES: CCN1CCN(C(=O)N[C@@H](C(=O)N[C@@H]2C(=O)N3C(C(=O)O)=C(CSc4nnnn4C)CS[C@H]23)c2ccc(O)cc2)C(=O)C1=O [Cefoperazone sodium, cefoperazone sodium]

Amount of component, percentage of amount at initial time [13]: 97.01%
Amount of component, percentage of amount at initial time [14]: 100.3%
Amount of component, percentage of amount at initial time [15]: 96.40%
Amount of component, percentage of amount at initial time [16]: 99.01%
Amount of component, percentage of amount at initial time [17]: 98.91%
Amount of component, percentage of amount at initial time [18]: 99.53%
Amount of component, percentage of amount at initial time (Example 8 solution (ceftriaxone sodium, tazobactam sodium, gentamicin sulfate, sodium citrate pH 6.75), room temperature, 0 h): 98.75%
Amount of component, percentage of amount at initial time (Example 8 solution (ceftriaxone sodium, tazobactam sodium, gentamicin sulfate, sodium citrate pH 6.75), room temperature, 1 h): 100.1%
Amount of component, percentage of amount at initial time (Example 8 solution (ceftriaxone sodium, tazobactam sodium, gentamicin sulfate, sodium citrate pH 6.75), room temperature, 2 h): 99.97%
Amount of component, percentage of amount at initial time (Example 8 solution (ceftriaxone sodium, tazobactam sodium, gentamicin sulfate, sodium citrate pH 6.75), room temperature, 4 h): 98.87%
Amount of component, percentage of amount at initial time (Example 8 solution (ceftriaxone sodium, tazobactam sodium, gentamicin sulfate, sodium citrate pH 6.75), room temperature, 6 h): 99.27%
Amount of component, percentage of amount at initial time (Example 8 solution (ceftriaxone sodium, tazobactam sodium, gentamicin sulfate, sodium citrate pH 6.75), room temperature, 8 h): 100.5%
SMILES: CO/N=C(\C(=O)N[C@@H]1C(=O)N2C(C(=O)O)=C(CSc3nc(=O)c(=O)[nH]n3C)CS[C@H]12)c1csc(N)n1 [Ceftriaxone sodium, ceftriaxone sodium]

Amount of component, percentage of amount at initial time [1]: 108.9%
Amount of component, percentage of amount at initial time [2]: 100.2%
Amount of component, percentage of amount at initial time [3]: 100.5%
Amount of component, percentage of amount at initial time [4]: 100.4%
Amount of component, percentage of amount at initial time [5]: 100.4%
Amount of component, percentage of amount at initial time [6]: 97.50%
Amount of component, percentage of amount at initial time [13]: 100.7%
Amount of component, percentage of amount at initial time [14]: 101.0%
Amount of component, percentage of amount at initial time [15]: 101.0%
Amount of component, percentage of amount at initial time [16]: 101.0%
Amount of component, percentage of amount at initial time [17]: 100.8%
Amount of component, percentage of amount at initial time [18]: 100.7%
Amount of component, percentage of amount at initial time (Example 11: solution of Example 10 freeze-dried, stored 7 days at 0° C., redissolved, pH 6.0, etimicin sulfate and disodium EDTA added, 0 h): 94.81%
Amount of component, percentage of amount at initial time (Example 11: solution of Example 10 freeze-dried, stored 7 days at 0° C., redissolved, pH 6.0, etimicin sulfate and disodium EDTA added, 1 h): 99.66%
Amount of component, percentage of amount at initial time (Example 11: solution of Example 10 freeze-dried, stored 7 days at 0° C., redissolved, pH 6.0, etimicin sulfate and disodium EDTA added, 2 h): 100.9%
Amount of component, percentage of amount at initial time (Example 11: solution of Example 10 freeze-dried, stored 7 days at 0° C., redissolved, pH 6.0, etimicin sulfate and disodium EDTA added, 4 h): 101.5%
Amount of component, percentage of amount at initial time (Example 11: solution of Example 10 freeze-dried, stored 7 days at 0° C., redissolved, pH 6.0, etimicin sulfate and disodium EDTA added, 6 h): 96.97%
Amount of component, percentage of amount at initial time (Example 11: solution of Example 10 freeze-dried, stored 7 days at 0° C., redissolved, pH 6.0, etimicin sulfate and disodium EDTA added, 8 h): 94.44%
Amount of component, percentage of amount at initial time [7]: 100%
Amount of component, percentage of amount at initial time [8]: 98.8%
Amount of component, percentage of amount at initial time [9]: 97.5%
Amount of component, percentage of amount at initial time [10]: 98.4%
Amount of component, percentage of amount at initial time [11]: 95.6%
Amount of component, percentage of amount at initial time [12]: 92.8%
SMILES: CCN[C@@H]1C[C@H](N)[C@@H](O[C@H]2O[C@H](CN)CC[C@H]2N)[C@H](O)[C@H]1O[C@H]1OC[C@](C)(O)[C@H](NC)[C@H]1O [Etimicin, etimicin]
